“Also recorded” adds a separate entry of the source.
Legend:
[1] = tested on: H-reflex (hyper-reflexia) in spinally transected rats; assay: H-reflex frequency-dependent depression in spinally transected rats; type: in vivo, rat; conditions: no exercise, 3 mg/Kg/day modafinil p.o. for 30 days, measured 30 days after transection, compared with Tx-30, MBET 30 and control
Procedure: Adult female Sprague-Dawley rats (Harlan, 200-250 g, n=40) underwent a lower thoracic laminectomy under ketamine (60 mg/kg, i.m.) and xylazine (10 mg/kg, i.m.) anesthesia. A complete transection (Tx) of the spinal cord was made by aspiration and the transected ends of the cord retracted, producing a 2-3 mm cavity. Gelfoam was inserted into the cavity to facilitate hemostasis and the dura was closed over the Tx site. Muscle and skin were sutured in separate layers, and animals were provided with dextrose-saline (5%, 1 ml/100 g body weight, s.c.) to replace fluid lost during the surgical procedure. […] Animals were monitored for signs of urinary tract infection, and treatment with Baytril (enroflaxin 0.2 mg/day, i.m. for 10 days) was instituted as needed. […]
Stimulation of the tibial nerve under the calcaneal tendon produced two responses, an early M-wave (2 ms latency), produced by direct activation of motoneuronal axons in the tibial nerve, and a later H-reflex (8 ms latency), produced by activation of muscle afferents in the tibial nerve, which synapse monosynaptically on plantar motoneurons. The degree of stimulation that induced frequency-dependent depression of the H-reflex was determined. […] The change in the response at various frequencies was calculated as the percent of the response at 0.2 Hz in order to determine depression of the H-reflex as a function of stimulation frequency. […]

[2] = tested on: cortical cells, inferior olivary cells and thalamic reticular cells; conditions: cited from earlier work

In the case of `NC(=O)C[S+]([O-])C(c1ccccc1)c1ccccc1` (centres unmarked) [modafinil], the “H-reflex amplitude at stimulation frequencies from 0.2 to 10 Hz (habituation / hyper-reflexia)” value [1] is listed as “as effective as passive exercise in normalizing exaggerated reflexes; also recorded: decreased (normalized) the H-reflex amplitude to the same extent as 30 days of exercise; also recorded: the reflexes were normalized; also recorded: effective in reducing hyper-reflexia after spinal transection” and the electrical coupling [2] is listed as “increases electrical coupling”.

From US9289403B2, “Use of modafinil to treat spasticity” (The Board of Trustees of the University of Arizona, priority 2007, dated 2016)
